According to US8440628B2, “Medical compositions containing ghrelin” (Daiichi Sankyo Company, Limited, priority 2002, dated 2013):
Like-named read-outs stand apart in the source and are kept apart here.

Experiments:
[1] = format: physicochemical
Experimental: Human ghrelin, which is one of the ghrelins, was dissolved in the 0.05M glycine hydrochloride buffer solutions (pH 3.5) to obtain an aqueous solution containing human ghrelin with following five concentrations, which are applicable for medical usage.
0.03 nmol/mL (0.1 μg/mL); 0.3 nmol/mL (1.0 μg/mL);
3.0 nmol/mL (10.0 μg/mL); 0.3 μmol/mL (1.0 mg/mL);
Each solutions were stored at 25±2° C. for 24 hours, and after storage, the HPLC analyses of each solutions were conducted to calculate the residual ratios from the concentration of human ghrelin. The changes of pH value were also examined to confirm no significant changes of pH in solutions occurred.
The residual ratio of the solution before storage was referred to as 100%, and the residual ratio of each solution after storage and the changes of pH value of each solution were summarized in the following Table 4.

[2] = Adsorption inhibiting effect of anti-adsorbents on human ghrelin in glass and polypropylene test tubes (Example 9); format: physicochemical; conditions: human ghrelin 1.0 μg/mL in 5% mannitol-0.05M glycine hydrochloride buffer (pH 3.5), anti-adsorbent None (control)
Experimental: As the anti-adsorbent, the surfactant, that is, polyoxyethylene sorbitan monooleate (hereinafter, referred to as Tween® 80), and benzalkonium chloride were selected.
The anti-adsorbent was added to this solution with 0.01% or 0.1% concentration.
The human ghrelin concentrations of each solution were measured by HPLC method right after preparation, and these solutions were replaced in glass test tubes. After that, each solution were further replaced in new glass test tubes, and same operation was repeated for 5 and 10 times, then, the human ghrelin concentrations of each treated solution were measured by HPLC method. As a control, the solution not containing anti-adsorbent was examined.
Same procedure was repeated by using test tube made by polypropylene instead of glass test tube.

[3] = Lyophilized powder for in situ preparation: solubility, content and pH after redissolving (Example 11); conditions: solution just after preparation, before lyophilization
Experimental: Human ghrelin was dissolved in 5% mannitol-0.05M glycine hydrochloride buffer solution (pH 3.5) with about 0.3 nmol/mL (1.0 μg/mL) concentration, and the human ghrelin concentration of this solution just after preparation was measured by HPLC method, and pH value of this solution was also measured. […] Then, this solution was lyophilized at −25° C. for 24 hours in vacuo, and the obtained powder was further dried at 20° C. for 24 hours in vacuo.

[4] = h. ghrelin 0.03 nmol/mL in 0.05M glycine hydrochloride buffer (pH 3.5), after storage for 25° C./24 hours
[5] = h. ghrelin 0.03 nmol/mL in 0.05M glycine hydrochloride buffer (pH 3.5), just after preparation
[6] = h. ghrelin 0.3 nmol/mL in 0.05M glycine hydrochloride buffer (pH 3.5), after storage for 25° C./24 hours
[7] = h. ghrelin 0.3 nmol/mL in 0.05M glycine hydrochloride buffer (pH 3.5), just after preparation
[8] = h. ghrelin 3.0 nmol/mL in 0.05M glycine hydrochloride buffer (pH 3.5), after storage for 25° C./24 hours
[9] = h. ghrelin 3.0 nmol/mL in 0.05M glycine hydrochloride buffer (pH 3.5), just after preparation
[10] = h. ghrelin 0.3 μmol/mL in 0.05M glycine hydrochloride buffer (pH 3.5), after storage for 25° C./24 hours
[11] = h. ghrelin 0.3 μmol/mL in 0.05M glycine hydrochloride buffer (pH 3.5), just after preparation
[12] = h. ghrelin 3 μmol/mL in 0.05M glycine hydrochloride buffer (pH 3.5), after storage for 25° C./24 hours
[13] = h. ghrelin 3 μmol/mL in 0.05M glycine hydrochloride buffer (pH 3.5), just after preparation

Compound: CCCCCCCC(=O)OC[C@H](NC(=O)[C@H](CO)NC(=O)CN)C(=O)N[C@@H](Cc1ccccc1)C(=O)N[C@@H](CC(C)C)C(=O)N[C@@H](CO)C(=O)N1CCC[C@H]1C(=O)N[C@@H](CCC(=O)O)C(=O)N[C@@H](Cc1c[nH]cn1)C(=O)N[C@@H](CCC(N)=O)C(=O)N[C@@H](CCCNC(=N)N)C(=O)N[C@H](C(=O)N[C@@H](CCC(N)=O)C(=O)N[C@@H](CCC(N)=O)C(=O)N[C@@H](CCCNC(=N)N)C(=O)N[C@@H](CCCCN)C(=O)N[C@@H](CCC(=O)O)C(=O)N[C@@H](CO)C(=O)N[C@@H](CCCCN)C(=O)N[C@@H](CCCCN)C(=O)N1CCC[C@H]1C(=O)N1CCC[C@H]1C(=O)N[C@@H](C)C(=O)N[C@@H](CCCCN)C(=O)N[C@@H](CC(C)C)C(=O)N[C@@H](CCC(N)=O)C(=O)N1CCC[C@H]1C(=O)N[C@@H](CCCNC(=N)N)C(=O)O)C(C)C [Human ghrelin]
- Residual ratio [1, 4]: 62%
- pH [1, 4]: 3.5
- Residual ratio [1, 5]: 100%
- pH [1, 5]: 3.4
- Residual ratio [1, 6]: 98%
- pH [1, 6]: 3.5
- Residual ratio [1, 7]: 100%
- pH [1, 7]: 3.5
- Residual ratio [1, 8]: 98%
- pH [1, 8]: 3.6
- Residual ratio [1, 9]: 100%
- pH [1, 9]: 3.5
- Residual ratio [1, 10]: 101%
- pH [1, 10]: 3.3
- Residual ratio [1, 11]: 100%
- pH [1, 11]: 3.4
- Residual ratio [1, 12]: 101%
- pH [1, 12]: 3.3
- Residual ratio [1, 13]: 100%
- pH [1, 13]: 3.4
- Human ghrelin concentration of the solution (Initial Conc. = 100) ([2]; Glass tube, replaced 5 times): 0
- Human ghrelin concentration of the solution (Initial Conc. = 100) ([2]; Glass tube, replaced 10 times): 0
- Human ghrelin concentration of the solution (Initial Conc. = 100) ([2]; Initial Conc.): 100
- Human ghrelin concentration of the solution (Initial Conc. = 100) ([2]; Polypropylene tube, replaced 5 times): 51
- Human ghrelin concentration of the solution (Initial Conc. = 100) ([2]; Polypropylene tube, replaced 10 times): 19
- pH value of the solution [3]: 3.5
